# According to PubChem BioAssay (NCI):
# “And” between values parts separate entries of the source, which are not always exact repeats. Equal values may be shown once.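 Where inhibition never reached the appropriate level, the endpoint shown equals the highest concentration tested. Otherwise, values were interpolated linearly from a five-concentration, 48-hour dose response in 96-well plates. At the GI50, growth is halved. TGI: total growth inhibition.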
# Assays:
# Assay in all cases: DTP human tumour cell line panel, 48 h
# NCI-H522 lung = tested on: NCI-H522 lung
# HCT-15 colon = tested on: HCT-15 colon
# U251 CNS = tested on: U251 CNS
# NCI-H226 lung = tested on: NCI-H226 lung
# SF-268 CNS = tested on: SF-268 CNS
# SK-OV-3 ovarian = tested on: SK-OV-3 ovarian
# M14 melanoma = tested on: M14 melanoma
# HT29 colon = tested on: HT29 colon
# MDA-MB-435 = tested on: MDA-MB-435
# PC-3 prostate = tested on: PC-3 prostate
compound,measurement,setting,value
COC(=O)[C@H]1C=C[C@@H](C)n2c(=O)c3cc4ccccc4cc3c(=O)n21,TGI,NCI-H522 lung,> 100 µM
same,TGI,HCT-15 colon,> 100 µM
same,TGI,U251 CNS,> 100 µM
same,TGI,NCI-H226 lung,> 100 µM
same,TGI,SF-268 CNS,> 100 µM
same,TGI,SK-OV-3 ovarian,> 100 µM
same,TGI,M14 melanoma,> 100 µM
Cc1cc(C)nc(NS(=O)(=O)c2ccc(NC(=O)c3cccc4c(Nc5ccc(S(N)(=O)=O)cc5)c5ccccc5nc34)cc2)n1,TGI,NCI-H522 lung,38.7 µM
same,TGI,HT29 colon,97.1 µM
same,TGI,HCT-15 colon,> 100 µM
same,TGI,U251 CNS,> 71.2 µM
same,TGI,NCI-H226 lung,> 100 µM
same,TGI,SF-268 CNS,> 67.4 µM
same,TGI,SK-OV-3 ovarian,28.4 µM
same,TGI,M14 melanoma,> 100 µM
COCC1(CO)C(=O)C2CCN1CC2 (stereo unspecified),GI50,NCI-H522 lung,4.28 µM
same,TGI,NCI-H522 lung,11.7 µM
same,GI50,HT29 colon,28.1 µM
same,TGI,HT29 colon,> 63.9 µM
same,GI50,MDA-MB-435,17.1 µM
same,TGI,MDA-MB-435,32.8 µM
same,GI50,HCT-15 colon,15.8 µM
same,TGI,HCT-15 colon,32.7 µM
same,GI50,U251 CNS,> 71 µM
same,TGI,U251 CNS,> 100 µM
same,GI50,PC-3 prostate,36 µM
same,TGI,PC-3 prostate,> 58.4 µM
same,GI50,NCI-H226 lung,> 47.5 µM
same,TGI,NCI-H226 lung,> 71.9 µM
same,GI50,SF-268 CNS,> 90.1 µM
same,TGI,SF-268 CNS,> 100 µM
same,GI50,SK-OV-3 ovarian,> 51 µM
same,TGI,SK-OV-3 ovarian,> 80.9 µM
same,GI50,M14 melanoma,15.4 µM
same,TGI,M14 melanoma,31.6 µM
Cc1ccc(NC(=O)CSc2nnc(-c3ccc(N=Cc4ccc(Cl)cc4)cc3)o2)cc1,TGI,NCI-H522 lung,> 100 µM
same,TGI,HT29 colon,> 100 µM
same,TGI,HCT-15 colon,> 100 µM
same,TGI,U251 CNS,> 100 µM
same,TGI,NCI-H226 lung,> 100 µM
same,TGI,SF-268 CNS,> 100 µM
same,TGI,SK-OV-3 ovarian,> 100 µM
same,TGI,M14 melanoma,> 100 µM
COC1(OC)CC2C(=O)N(Cc3ccccc3)C1C=C2S(=O)(=O)c1ccccc1 (stereo unspecified),TGI,NCI-H522 lung,27.7 µM
same,TGI,HT29 colon,33.8 µM
same,TGI,U251 CNS,29 µM
same,TGI,NCI-H226 lung,47.3 µM
same,TGI,SF-268 CNS,> 100 µM
same,TGI,SK-OV-3 ovarian,> 100 µM
same,TGI,M14 melanoma,35 µM
C/C(CC(=O)Nc1cccc(Cl)c1C)=N\NC(=O)c1ccncc1,TGI,NCI-H522 lung,55 µM
same,TGI,HT29 colon,> 100 µM
same,TGI,U251 CNS,> 100 µM
same,TGI,NCI-H226 lung,> 100 µM
same,TGI,SF-268 CNS,> 100 µM
same,TGI,SK-OV-3 ovarian,> 100 µM
same,TGI,M14 melanoma,> 100 µM
Cc1nc([N+](=O)[O-])cn1CC(=N)N,TGI,HT29 colon,> 100 µM
same,TGI,HCT-15 colon,> 100 µM
same,TGI,U251 CNS,> 100 µM
same,TGI,NCI-H226 lung,> 100 µM
same,TGI,SF-268 CNS,> 100 µM
same,TGI,M14 melanoma,> 100 µM
CC1COC(C)(C)P(=O)(c2ccccc2)C1 (stereo unspecified),TGI,NCI-H522 lung,> 100 µM
same,TGI,HT29 colon,> 100 µM
same,TGI,HCT-15 colon,> 100 µM
same,TGI,U251 CNS,> 100 µM
same,TGI,NCI-H226 lung,> 100 µM
same,TGI,SK-OV-3 ovarian,> 100 µM
same,TGI,M14 melanoma,> 100 µM
COc1cc(C=O)c(-c2cc(OC)c(OC)cc2C=O)cc1OC,TGI,NCI-H522 lung,> 100 µM
same,TGI,HT29 colon,> 100 µM
same,TGI,HCT-15 colon,> 100 µM
same,TGI,U251 CNS,> 100 µM
same,TGI,NCI-H226 lung,> 100 µM
same,TGI,SF-268 CNS,> 100 µM
same,TGI,SK-OV-3 ovarian,> 100 µM
same,TGI,M14 melanoma,> 100 µM
CC(C)N(CCn1c2c3ccccc3ccc2c2oc(=O)c3ccccc3c21)C(C)C,TGI,NCI-H522 lung,> 100 µM
same,TGI,HT29 colon,> 100 µM
same,TGI,HCT-15 colon,> 100 µM
same,TGI,U251 CNS,> 100 µM
same,TGI,NCI-H226 lung,> 100 µM
same,TGI,SF-268 CNS,> 100 µM
same,TGI,SK-OV-3 ovarian,> 100 µM
same,TGI,M14 melanoma,> 100 µM
COC(=O)/C=C1\CCC(C)O1 (stereo unspecified),TGI,HT29 colon,> 100 µM
same,TGI,HCT-15 colon,> 100 µM
same,TGI,U251 CNS,> 100 µM
same,TGI,SF-268 CNS,> 100 µM
same,TGI,SK-OV-3 ovarian,> 100 µM
same,TGI,M14 melanoma,> 100 µM
COC(=O)[C@@H](C)C[C@H](Cc1ccccc1)NC(=O)c1csc([C@@H](C[C@H](C(C)C)N(C)C(=O)[C@@H](NC(=O)[C@H]2CCCCN2C)C2CCCCC2)OC(C)=O)n1,GI50,HT29 colon,0.000314 µM and 0.0025 µM
same,TGI,HT29 colon,4.95 µM
same,GI50,MDA-MB-435,< 0.0001 µM
same,TGI,MDA-MB-435,0.000368 µM
same,GI50,HCT-15 colon,0.00102 µM and 0.0025 µM
same,TGI,HCT-15 colon,> 25 µM
same,GI50,U251 CNS,0.000533 µM and 0.0025 µM
same,TGI,U251 CNS,> 25 µM
same,GI50,PC-3 prostate,0.000435 µM and 0.0025 µM
same,TGI,PC-3 prostate,20.9 µM
same,GI50,NCI-H226 lung,0.0025 µM
same,TGI,NCI-H226 lung,> 25 µM
same,GI50,SF-268 CNS,0.00375 µM and 0.0025 µM
same,TGI,SF-268 CNS,> 25 µM
same,GI50,SK-OV-3 ovarian,0.000567 µM and 0.0025 µM
same,TGI,SK-OV-3 ovarian,> 25 µM
same,GI50,M14 melanoma,0.000304 µM and < 0.0025 µM
same,TGI,M14 melanoma,0.00312 µM and < 0.0025 µM
N#CC(C(=O)C(=O)Nc1ccc(Cl)cc1)c1ccccc1 (stereo unspecified),TGI,HT29 colon,> 100 µM
same,TGI,HCT-15 colon,> 100 µM
same,TGI,U251 CNS,> 100 µM
same,TGI,NCI-H226 lung,> 100 µM
same,TGI,SF-268 CNS,> 100 µM
same,TGI,SK-OV-3 ovarian,> 100 µM
same,TGI,M14 melanoma,> 100 µM
S=c1[nH]c(=S)c2nnn(-c3ccccc3)c2[nH]1,TGI,NCI-H522 lung,> 100 µM
same,TGI,HT29 colon,> 100 µM
same,TGI,HCT-15 colon,> 100 µM
same,TGI,U251 CNS,> 100 µM
same,TGI,NCI-H226 lung,> 100 µM
same,TGI,SF-268 CNS,> 100 µM
same,TGI,SK-OV-3 ovarian,> 100 µM
same,TGI,M14 melanoma,> 100 µM
COC(=O)/C=C/c1c(CC=C(C)C)ncn1C,TGI,NCI-H522 lung,> 100 µM
same,TGI,HT29 colon,> 100 µM
same,TGI,HCT-15 colon,> 100 µM
same,TGI,U251 CNS,> 67.1 µM
same,TGI,NCI-H226 lung,> 89.8 µM
same,TGI,SF-268 CNS,> 100 µM
same,TGI,SK-OV-3 ovarian,> 100 µM
same,TGI,M14 melanoma,> 100 µM
CCCN1CN(C(C(=O)N[C@@H]2C(=O)N3C2SC(C)(C)C3C(=O)O)c2ccc(O)cc2)CSC1=S (stereo partly specified),TGI,NCI-H522 lung,83.6 µM
same,TGI,HT29 colon,> 100 µM
same,TGI,HCT-15 colon,> 100 µM
same,TGI,U251 CNS,> 100 µM
same,TGI,SF-268 CNS,> 100 µM
same,TGI,SK-OV-3 ovarian,> 100 µM
same,TGI,M14 melanoma,> 100 µM
Cc1cccc(C)c1NC(=O)C(=O)C(C(=O)c1ccccc1-c1ccccc1)C1OC(=O)c2ccccc21 (stereo unspecified),TGI,NCI-H522 lung,24.9 µM
same,TGI,HT29 colon,> 100 µM
same,TGI,U251 CNS,30.7 µM
same,TGI,NCI-H226 lung,30.3 µM
same,TGI,SF-268 CNS,78.4 µM
same,TGI,SK-OV-3 ovarian,87.6 µM
same,TGI,M14 melanoma,29.3 µM
c1ccc2nc3c(nc2c1)sc1ccccc13,TGI,NCI-H522 lung,> 100 µM
same,TGI,HT29 colon,> 100 µM
same,TGI,MDA-MB-435,> 100 µM
same,TGI,HCT-15 colon,> 100 µM
same,TGI,U251 CNS,34.1 µM
same,TGI,NCI-H226 lung,66.8 µM
same,TGI,SF-268 CNS,46.1 µM
same,TGI,SK-OV-3 ovarian,29.5 µM
same,TGI,M14 melanoma,> 100 µM
CN[C@@H](C)[C@@H](NC)c1ccccc1,TGI,NCI-H522 lung,> 100 µM
same,TGI,HT29 colon,> 100 µM
same,TGI,HCT-15 colon,> 100 µM
same,TGI,U251 CNS,2.9 µM
same,TGI,NCI-H226 lung,> 100 µM
same,TGI,SK-OV-3 ovarian,> 100 µM
same,TGI,M14 melanoma,> 100 µM
CC(C)C(=O)Nc1nc2c(ncn2C2OC(CO)C(O)C2O)c(=O)[nH]1 (stereo unspecified),TGI,NCI-H522 lung,> 100 µM
same,TGI,HT29 colon,> 100 µM
same,TGI,HCT-15 colon,> 100 µM
same,TGI,U251 CNS,> 100 µM
same,TGI,NCI-H226 lung,> 100 µM
same,TGI,SF-268 CNS,> 100 µM
same,TGI,SK-OV-3 ovarian,> 100 µM
same,TGI,M14 melanoma,> 100 µM
COc1ncc(-c2ccc3ncnc(Nc4cccc(Cl)c4)c3c2)cc1NS(=O)(=O)C1CC1,GI50,MDA-MB-435,> 100 µM
same,TGI,MDA-MB-435,> 100 µM
same,GI50,U251 CNS,4.75 µM
same,TGI,U251 CNS,> 100 µM
same,GI50,PC-3 prostate,> 100 µM
same,TGI,PC-3 prostate,> 100 µM
same,GI50,SF-268 CNS,1.54 µM
same,TGI,SF-268 CNS,> 100 µM
same,GI50,M14 melanoma,> 100 µM
same,TGI,M14 melanoma,> 100 µM
O=[N+]([O-])c1ccc(N2N=C(c3ccc(NCc4nc5ccccc5[nH]4)cc3)CC2c2ccco2)cc1 (stereo unspecified),TGI,NCI-H522 lung,54 µM
same,TGI,HT29 colon,90.6 µM
same,TGI,HCT-15 colon,84.9 µM
same,TGI,U251 CNS,> 100 µM
same,TGI,SF-268 CNS,> 100 µM
same,TGI,SK-OV-3 ovarian,> 100 µM
same,TGI,M14 melanoma,61.3 µM
O=C1c2ccccc2-c2c1c1ccccc1c(=O)n2CCCCl,GI50,NCI-H522 lung,37.4 µM
same,TGI,NCI-H522 lung,> 100 µM
same,GI50,HT29 colon,37.2 µM
same,TGI,HT29 colon,> 100 µM
same,GI50,MDA-MB-435,28 µM
same,TGI,MDA-MB-435,> 100 µM
same,GI50,HCT-15 colon,5.99 µM
same,TGI,HCT-15 colon,> 100 µM
same,GI50,U251 CNS,11 µM
same,TGI,U251 CNS,31.5 µM
same,GI50,PC-3 prostate,24.9 µM
same,TGI,PC-3 prostate,> 100 µM
same,GI50,SF-268 CNS,10.3 µM
same,TGI,SF-268 CNS,80.8 µM
same,GI50,SK-OV-3 ovarian,19.1 µM
same,TGI,SK-OV-3 ovarian,62.2 µM
same,GI50,M14 melanoma,35.5 µM
same,TGI,M14 melanoma,> 100 µM
